Laboratory results: patent publication US7405036B2, “Process for reducing pathogens in a biological sample and removing a sample pellet from a sample tube” (priority 2001, dated 2008)

Assays:
[1] = test system: cultured cells and embryos; settings: up to 1000 μg/ml; cited from earlier work
Campylobacter fetus = assay type: cell-based
Mycoplasma species = settings: 200 μg/ml; cited from earlier work
[2] = test system: bovine (Bos gaurus) sperm; assay: Percoll density gradient with trypsin, viability of cryopreserved sperm
[3] = test system: fresh semen of domestic bulls and gaur bulls; assay type: cell-based, Bos taurus, Bos gaur

NC[C@H]1O[C@H](O[C@H]2[C@H](O)[C@@H](O[C@H]3O[C@H](CO)[C@@H](O)[C@H](N)[C@H]3O)[C@H](N)C[C@@H]2N)[C@H](O)[C@@H](O)[C@@H]1O [kanamycin]
toxicity to cultured cells and embryos [1]: very little toxicity

CCC[C@@H]1C[C@@H](C(=O)N[C@@H]([C@H]2O[C@H](SC)[C@H](O)[C@@H](O)[C@H]2O)[C@@H](C)O)N(C)C1 [lincomycin]
sensitivity of C. fetus to antibiotic (Campylobacter fetus): sensitive

CN[C@@H]1[C@H](O)[C@H](NC)[C@H]2O[C@@]3(O)C(=O)C[C@@H](C)O[C@H]3O[C@@H]2[C@H]1O [spectinomycin]
sensitivity of C. fetus to antibiotic (Campylobacter fetus): intermediate

CC[C@H]1OC(=O)C[C@@H](O)[C@H](C)[C@@H](O[C@@H]2O[C@H](C)[C@@H](O[C@H]3C[C@@](C)(O)[C@@H](O)[C@H](C)O3)[C@H](N(C)C)[C@H]2O)[C@@H](CC=O)C[C@@H](C)C(=O)/C=C/C(C)=C/[C@@H]1CO[C@@H]1O[C@H](C)[C@@H](O)[C@@H](OC)[C@H]1OC [tylosin]
sensitivity of C. fetus to antibiotic (Campylobacter fetus): intermediate
elimination of Mycoplasma species from bovine embryos (Mycoplasma species): capable of eliminating
embryo viability (Mycoplasma species): without effecting embryo viability

trypsin
effect on sperm of increasing trypsin concentration [2]: no detrimental effects
acrosomal integrity [3]: nor any significant damage
overall motility [3]: no significant reduction
viability (vital staining) [3]: no reduction
